Key:
isolated left atrium = test: Effect on contractile force of isolated left atrium (electrically stimulated, Magnus's bath); parameters: species or system guinea pig (male Hartley, 7 weeks old); settings: Corresponding Concentration 1 × 10^-4 (mol); isolated guinea pig left atrium, Krebs-Henseleit solution, stimulated at 0.5 cps, 5 msec, 20% above threshold
Method: (1) The contractile force of left atrium was tested according to the method described in Basic Lectures of Medicine Development, Volume V, Pharmacological Test Methods, Part 2, page 535 (1971). A 7-weeks-old male Hartley guinea pig (having a bodyweight of about 350 g) was killed by a blow on a head. The chest was opened and the heart was removed and placed in Krebs-Henseleit solution (prepared by adding distilled water to 6.92 g of sodium chloride, 0.35 g of calcium chloride, 0.29 g of magnesium sulfate, 0.16 g of mono-basic potassium phosphate, 2.1 g of sodium bicarbonate and 1.8 g of glucose so that the total amount was 1 l) which sufficiently bubbled with oxygen gas. Threads were tied to each tip of the left atrium. One thread was attached to a fixed pin in Magnus's bath and the other to a force-displacement transducer connected to an electric amplifier and recorder. The atrium was stimulated electrically at 0.5 cps, 5 msec and a voltage of 20% above threshold. The preparation is mounted in Krebs-Henseleit solution through which 95% oxygen gas and 5% carbon dioxide was blown. Then the samples were added.
Further, the above-mentioned tests were carried out by using following apparatuses.
Magnus's bath: supplied by Kabushiki Kaisha Natsume Seisakusho
Recorder: Model WI-680G supplied by Nippon Koden Kabushiki Kaisha
Force displacement transducer: supplied by Nippon Koden Kabushiki Kaisha
Electrical amplifier: Model AP-600G supplied by Nippon Koden Kabushiki Kaisha
Programmed electrosphygmonometer: supplied by Nippon Koden Kabushiki Kaisha

[1] = Acute toxicity (Litchfield-Wilcoxon method), intraperitoneal injection; parameters: species or system mouse (6-weeks-old male ddY); settings: mouse, in vivo, ip, male ddY mice, 6 weeks old, 19-24 g
Method: (2) The acute toxicity of the compound of the formula I was determined according to the Litchfield-Wilcoxon method, J. Pharm. Exp. Ther., 96, 99 (1949) using 6-weeks-old male ddY mice (having a bodyweight of 19-24 g) while administrating the sample compound in intraperitonial injection.

Structure (SMILES)	Maximum Contractile Force (isolated left atrium)	LD50 [1] [mg/kg]
Cc1nc(C#N)sc1-c1ccncc1 [R1 = --CN, R2 = --CH3, R3 = 4-pyridinyl, 2-cyano-4-methyl-5-(4-pyridinyl)-thiazole]	558 ± 123 mg	
Cc1nc(C(N)=O)sc1-c1ccncc1 [4-Methyl-5-(4-pyridinyl)-thiazole-2-carboxamide]	1,325 ± 132 mg	230
COC(=O)c1nc(C)c(-c2ccncc2)s1 [Methyl 4-methyl-5-(4-pyridinyl)-thiazole-2-carboxylate]	446 ± 91 mg	
CNC(=O)c1nc(C)c(-c2ccncc2)s1 [R1 = --CONHCH3, R2 = --CH3, R3, N,4-Dimethyl-5-(4-pyridinyl)-thiazole-2-carboxamide]	510 ± 45 mg	

Reference: US4804668A, “Thiazole derivatives and medical compositions thereof” (Zenyaku Kogyo Kabushiki Kaisha, priority 1985, dated 1989)
